Measured values reported in PubChem BioAssay AID1648 (Sanford-Burnham Center for Chemical Genomics, 2009).
Calls of active or inactive are those of the source. No rule for the calls is given here.

What follows are compounds tested against Serine/threonine-protein kinase mTOR (Homo sapiens) (UniProt P42345) (assay: mTOR FRB domain ligand binding – biophysical, NMR (AID 1648)). Conditions: NMR binding to FRB domain, chemical shift.
Sequence of Serine/threonine-protein kinase mTOR (Homo sapiens) (P42345 2015-2114): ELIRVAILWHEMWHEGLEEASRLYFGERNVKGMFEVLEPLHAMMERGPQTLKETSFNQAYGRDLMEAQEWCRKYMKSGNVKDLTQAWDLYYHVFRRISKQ

| Compound | Kd |
| --- | --- |
| Cc1ccc(SCc2nc(-c3cccnc3)no2)cc1 | > 4 mM (inactive) |
| O=C(c1ccccc1)N1CCNCC1 | > 4 mM (inactive) |
| Cc1cccc(-n2c(N)cc(=O)[nH]c2=S)c1 | > 4 mM (inactive) |
| O=C(c1ccco1)N1CCn2c1nc1ccccc12 | > 4 mM (inactive) |
| CC(=O)NC(=S)Nc1ccccc1C | > 4 mM (inactive) |
| O=C1CCC(=O)N1c1nc2ccccc2s1 | > 4 mM (inactive) |
| O=C(O)CC1C(=O)NCCN1Cc1cccs1 (stereo not given) | > 4 mM (inactive) |
| CC(C)(O)P(C)(=O)c1ccccc1 (stereo not given) | > 4 mM (inactive) |
| CN1CCN(C(=O)c2ccccc2C(=O)O)CC1 | > 4 mM (inactive) |
| O=C(Nc1ccncc1)c1cncc(Br)c1 | > 4 mM (inactive) |
| Cc1cc(=O)[nH]c(NCC(=O)O)n1 | > 4 mM (inactive) |
| O=C(Nc1ccc2c(c1)CCC2)c1cnccn1 | > 4 mM (inactive) |
| COC(=O)c1c(SC)nc(-c2ccccc2)[nH]c1=O | > 4 mM (inactive) |
| Cc1csc2nc(N)nn12 | > 4 mM (inactive) |
| CC(=O)CC1(O)C(=O)Nc2ccc(Br)cc21 (stereo not given) | > 4 mM (inactive) |
| CSc1ccccc1NC(=O)c1ccc(C)o1 | > 4 mM (inactive) |
| OCc1ccc2ncccc2c1 | > 4 mM (inactive) |
| CC(C)CC(=O)NC1CCSC1=O (stereo not given) | > 4 mM (inactive) |
| Nc1nc(SCc2ccc3c(c2)OCO3)n[nH]1 | > 4 mM (inactive) |
| Cc1nnc(NCCN2CCOCC2)[nH]c1=O | > 4 mM (inactive) |
| Cc1nc2ccccc2c(=O)[nH]1 | > 4 mM (inactive) |
| NCc1ccc(S(=O)(=O)O)cc1 | > 4 mM (inactive) |
| O=C(COc1ccccc1)N1CCc2ccccc2C1 | > 4 mM (inactive) |
| Cn1nc(C(=O)NC2CCCCC2)c2ccccc2c1=O | > 4 mM (inactive) |

| Compound | Kd |
| --- | --- |
| Cc1cc(C)n2nc(C(=O)Nc3cccnc3)nc2n1 | > 4 mM (inactive) |
| O=c1[nH]c2ccc(S(=O)(=O)NC3CC3)cc2[nH]1 | > 4 mM (inactive) |
| COc1cccc(NC(=O)c2ncn[nH]2)c1 | > 4 mM (inactive) |
| CC(=O)NN1C(=O)c2cccc3cccc(c23)C1=O | > 4 mM (inactive) |
| Cc1cc(C)c2nncn2n1 | > 4 mM (inactive) |
| CC1=CC2C(C(C)C)CCC(C)(O)C2CC1 (stereo not given) | > 4 mM (inactive) |
| CC(=O)O[C@H]1CCC2(C)C3=C(CCC2C1(C)C)[C@@]1(C)CC[C@@H](C(C)CCC=C(C)C)[C@]1(C)CC3 (stereo not given in full) | > 4 mM (inactive) |
| c1n[nH]cc1-c1cn[nH]c1 | > 4 mM (inactive) |
| C=CCCCCCCCCCCCC(O)CC(O)COC(C)=O (stereo not given) (tested in a mixture with another compound) | > 4 mM (inactive) |
| COc1c(O)cc(O)cc1O | > 4 mM (inactive) |
| NCc1ccc2c(c1)CCO2 | > 4 mM (inactive) |
| Cc1ccc(CO)o1 | > 4 mM (inactive) |
| O=C(Nn1c(=S)[nH]c2ccccc2c1=O)c1ccncc1 | > 4 mM (inactive) |
| OCc1nc2ccccc2s1 | > 4 mM (inactive) |
| COc1cc2c(cc1OC)[C@@H]1C(=O)c3ccc(OC)c(CC=C(C)C)c3O[C@@H]1CO2 | > 4 mM (inactive) |
| Cc1ccc(SCc2cc(=O)n3[nH]cnc3n2)cc1 | > 4 mM (inactive) |
| O=C(O)[C@H](O)[C@@](O)(Cc1ccc(O)cc1)C(=O)O | > 4 mM (inactive) |
| N/N=C/c1cccnc1 | > 4 mM (inactive) |
| Cc1ccc(NC(=O)CN2C(=O)CSC2=O)cc1 | > 4 mM (inactive) |
| Cc1cc(C)c(-c2cc(C(F)(F)F)no2)c(=O)[nH]1 | > 4 mM (inactive) |
| Cc1cc(NC(=O)NCCCSc2nncn2C)no1 | > 4 mM (inactive) |
| CCn1c2ccccc2c2nn(C)c(=N)nc21 | > 4 mM (inactive) |
| Cc1n[nH]c(C)c1-c1ccccc1C(=O)O | > 4 mM (inactive) |
| Cc1cc(C)n(CCC(=O)O)n1 | > 4 mM (inactive) |

| Compound | Kd |
| --- | --- |
| OCCCc1nc2ccccc2[nH]1 | > 4 mM (inactive) |
| Cc1cc(C)nc(NC(N)=NCc2ccco2)n1 | > 4 mM (inactive) |
| O=C1CSC(=Nc2ccc(O)cc2)N1 | > 4 mM (inactive) |
| C=CCc1ccc2c(c1)OCO2 | > 4 mM (inactive) |
| CNCc1ccco1 | > 4 mM (inactive) |
| Nc1nc2ccc(N3CCOCC3)cc2s1 | > 4 mM (inactive) |
| CC1NC(C(=O)O)Cc2c1[nH]c1ccccc21 (stereo not given) | > 4 mM (inactive) |
| Cc1ccc2c(c1)=C(c1sc(N)nc1O)C(=O)N=2 | > 4 mM (inactive) |
| CCCCCC/C=C\CCCCCCCc1cccc(O)c1C(=O)O | > 4 mM (inactive) |
| NCc1ccc(-c2csnn2)cc1 | > 4 mM (inactive) |
| CCNC(=O)CC1Nc2ccccc2NC1=O (stereo not given) | > 4 mM (inactive) |
| CC(C)c1ccc2c(c1)CCC1[C@](C)(CN)CCC[C@]21C (stereo not given in full) | > 4 mM (inactive) |
| O=C(O)CN(CCCc1ccccc1)CC(=O)O | > 4 mM (inactive) |
| O=C1N=C(N2CCOCC2)S/C1=C\c1cccnc1 | > 4 mM (inactive) |
| CN(C)C(=O)c1ccccc1-c1ccccc1 | > 4 mM (inactive) |
| COc1ccc(N2CC(=O)NC2=O)cc1 | > 4 mM (inactive) |
| CC1(C)C(=O)C=C[C@@]2(C)C1=C(O)C(=O)[C@]1(C)C2CC[C@@]2(C)[C@H](c3ccoc3)C[C@H]3O[C@]321 (stereo not given in full) | > 4 mM (inactive) |
| Cn1cnnc1SCC(=O)Nc1nccs1 | > 4 mM (inactive) |
| O=C(O)c1ccnc2ccccc12 | > 4 mM (inactive) |
| Nc1cc(C(F)(F)F)ccc1N1CCOCC1 | > 4 mM (inactive) |
| O=C(Nc1cccnc1)N1CCOCC1 | > 4 mM (inactive) |
| O=S(=O)(O)c1nc2ccccc2[nH]1 | > 4 mM (inactive) |
| O=C(O)CSCc1ccc(Cl)cc1 | > 4 mM (inactive) |
| COC(=O)C1Cc2ccccc2N1 (stereo not given) | > 4 mM (inactive) |

| Compound | Kd |
| --- | --- |
| O=C(Nc1cccc(Cl)c1)c1ccncc1 | > 4 mM (inactive) |
| Cc1cc(C)n(CC(=O)NC2CCCCC2)n1 | > 4 mM (inactive) |
| Cc1cccc(CSc2nncc(=O)[nH]2)c1 | > 4 mM (inactive) |
| CC(=O)c1cccc(N=C2NC(=O)CS2)c1 | > 4 mM (inactive) |
| CC(C(N)=O)N1C(=O)c2ccccc2C1=O (stereo not given) | > 4 mM (inactive) |
| Nc1c(Nc2ccccc2)c2ccccc2oc1=O | > 4 mM (inactive) |
| O=C(O)/C=C/C(=O)Nc1ccccc1C(F)(F)F | > 4 mM (inactive) |
| C=C1CCC2[C@](C)(CO)[C@H](O)CC[C@@]2(C)[C@@H]1C/C=C1/C(=O)OC[C@H]1O (stereo not given in full) | > 4 mM (inactive) |
| COC(=O)[C@@H]1OC(=O)C2OC23[C@@]1(C)CCC1[C@]2(C)C(C[C@@H](O)[C@]13C)C(C)(C)[C@H](OC(C)=O)C[C@@H]2OC(C)=O (stereo not given in full) | > 4 mM (inactive) |
| O=C1CCCN1C(=O)c1ccc(F)cc1 | > 4 mM (inactive) |
| Cc1ccc(N2C(=O)C3C4C=CC(O4)C3C2=O)cc1 (stereo not given) | > 4 mM (inactive) |
| Cc1csc(NC(=O)c2cccs2)n1 | > 4 mM (inactive) |
| Cc1nnc(Nc2ccc(S(N)(=O)=O)cc2)[nH]c1=O | > 4 mM (inactive) |
| COCC(=O)/C=C1\Sc2ccccc2N1C | > 4 mM (inactive) |
| Cc1csc2nc(=O)c3ccccc3n12 | > 4 mM (inactive) |
| CC(=O)NS(=O)(=O)c1ccc(C)cc1 | > 4 mM (inactive) |
| O=C(Cc1cccs1)N1CCOCC1 | > 4 mM (inactive) |
| CC(C)NC1CS(=O)(=O)CC1O (stereo not given) | > 4 mM (inactive) |
| CSc1nc2cc(F)c(F)cc2n1C | > 4 mM (inactive) |
| COc1ccc2c(c1)OCC(Cc1ccc(OC)c(O)c1)C2=O (stereo not given) | > 4 mM (inactive) |
| N#Cc1cnc(N2CCCCC2)nc1N | > 4 mM (inactive) |
| COc1ccc2nc(NC(=O)c3cnccn3)sc2c1 | > 4 mM (inactive) |
| Nc1nc(SCc2ccc3c(c2)OCCO3)n[nH]1 | > 4 mM (inactive) |
| C=C1C2CC[C@@]3(C)[C@H](c4ccoc4)OC(=O)C[C@]13O[C@H]1CC(=O)C(C)(C)[C@H](C(OC(C)=O)C(=O)OC)[C@@]21C (stereo not given in full) | > 4 mM (inactive) |

| Compound | Kd |
| --- | --- |
| COC(=O)c1ccc(N2CCOCC2)nc1 | > 4 mM (inactive) |
| CC1(C)O[C@H]2CC(=O)OC[C@]23[C@H]2CC[C@@]4(C)[C@H](c5ccoc5)OC(=O)[C@H]5O[C@]54[C@]2(C)C(=O)C[C@@H]13 | > 4 mM (inactive) |
| N=Cc1c(O)n(-c2cccc(Cl)c2)c(=O)[nH]c1=O | > 4 mM (inactive) |
| OC12CC3CC(C1)C1(NCCS1)C(C3)C2 (stereo not given) | > 4 mM (inactive) |
| Nc1nc(-c2ccc(F)c(F)c2)cs1 | > 4 mM (inactive) |
| NC(=O)Cn1cnc2ccccc21 | > 4 mM (inactive) |
| CS(=O)(=O)c1ccc2nc(N)sc2c1 | > 4 mM (inactive) |
| O=C1Nc2ccccc2C12OCCO2 | > 4 mM (inactive) |
| COc1ccc(-c2oc3cc(O[C@H]4O[C@H](CO)[C@@H](O)[C@H](O)[C@H]4O)c(OC)c(O)c3c(=O)c2OC)cc1O | > 4 mM (inactive) |
| CCOC(=O)Nc1ccc2c(C)cc(=O)oc2c1 | > 4 mM (inactive) |
| N[C@@H](Cc1ccc(O)c(O)c1)C(=O)O | > 4 mM (inactive) |
| O=C1NC(=O)C(Cc2ccccc2)C(=O)N1 | > 4 mM (inactive) |
| OCC1CCCN2CCCCC12 (stereo not given) | > 4 mM (inactive) |
| N#CCSc1nc2ccccc2c(=O)n1-c1ccccc1 | > 4 mM (inactive) |
| Cc1[nH]ccc2c1[nH]c1cc(=O)ccc12 | > 4 mM (inactive) |
| CNc1nc(C)nc(-n2nc(C)cc2C)n1 | > 4 mM (inactive) |
| Cc1ccc(C(=O)N2CCC(C(N)=O)CC2)c(Cl)c1 | > 4 mM (inactive) |
| Nc1ccc(-c2cn3c(n2)SCC3)cc1 | > 4 mM (inactive) |
| COc1ccc(Cl)cc1-c1nc(-c2ccncc2)no1 | > 4 mM (inactive) |
| COC(=O)Cc1cc(=O)n(-c2ccccc2)[nH]1 | > 4 mM (inactive) |
| CC(=O)Nc1ccc(S(=O)(=O)N2CCN=C2C)cc1 | > 4 mM (inactive) |
| C=CCc1ccc(OC(=O)c2ccccc2)c(OC)c1 | > 4 mM (inactive) |
| CC(=O)Oc1ccc2c(c1OC(C)=O)OCC1(O)Cc3c(cc(OC(C)=O)c(OC(C)=O)c3OC(C)=O)C21 (stereo not given) | > 4 mM (inactive) |
| O=C(O)c1coc2c1C(=O)CCC2 | > 4 mM (inactive) |
